Assay results from publication PMC4195943, “A novel small-molecule MRCK inhibitor blocks cancer cell invasion” (Cell Communication and Signaling : CCS, 2014).
Read-outs that look alike come from different tables or passages of the source.

Tests used:
[1] = target: T1, PhKγ2 (Homo sapiens, UniProt P15735); assay: Kinase selectivity profiling (Eurofins), PhKγ2; format: biochemical
T1 construct: purchased Eurofins
T1 sequence (P15735 1-406): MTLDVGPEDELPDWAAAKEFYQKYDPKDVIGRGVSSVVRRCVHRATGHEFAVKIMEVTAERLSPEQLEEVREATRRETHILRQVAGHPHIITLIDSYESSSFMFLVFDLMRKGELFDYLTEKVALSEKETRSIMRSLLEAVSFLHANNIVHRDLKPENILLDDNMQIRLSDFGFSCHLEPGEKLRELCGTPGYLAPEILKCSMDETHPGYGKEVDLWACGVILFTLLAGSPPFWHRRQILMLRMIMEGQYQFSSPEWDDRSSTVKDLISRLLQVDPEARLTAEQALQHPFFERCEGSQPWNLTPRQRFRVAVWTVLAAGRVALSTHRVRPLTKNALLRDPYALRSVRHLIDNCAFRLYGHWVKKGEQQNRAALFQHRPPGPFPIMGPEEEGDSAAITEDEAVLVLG
Excerpt: The results of this screening were mapped over the annotated human kinome phylogenetic tree using Kinome Render (Figure 2).
Kinases inhibited less than 25% have their names in green text. Kinases inhibited >25% and ≤50% have yellow circles, >50% and ≤75% have orange circles, and >75% have red circles. In each case, the size of the circle is proportional to the percentage inhibition. ROCK1 and MRCKα positions are indicated on the tree for orientation purposes. Illustration reproduced courtesy of Cell Signaling Technology, Inc. (www.cellsignal.com).
MRCKα, MRCKβ, ROCK1 and ROCK2 assays were performed using an IMAP fluorescence polarization assay format (Molecular Devices Inc.). 8–12 nM of each kinase (Life Technologies) was incubated for 60 min at room temperature with 100 nM FAM-S6-ribosomal protein derived peptide (synthesized by Alta Biosciences, University of Birmingham UK) in the presence of 1 μM ATP and 0.5 mM MgCl2 in 20 mM Tris buffer (pH 7.4) containing 0.01% Tween-20 and 1 mM DTT (MRCKα and β); or 1 μM ATP, 10 mM MgCl2 in 20 mM Tris buffer (pH 7.5) containing 0.25 mM EGTA 0.01% Triton X-100 and 1 mM DTT (ROCK1 and ROCK2). […] After 30 min incubation to allow binding reagent to bind phosphorylated peptide, fluorescence polarization was measured on a Tecan Saphire^2 plate reader at excitation (470 nm) and emission (530 nm) wavelengths. […]

[2] = tested on: MLC phosphorylation in MDA-MB-231 cells; assay: MLC phosphorylation in parental MDA-MB-231 breast cancer cells (quantitative western blot); format: cell-based, human; conditions: for EC50: parental MDA-MB-231, 30 minutes treatment, read-out: EC50, inhibition of MLC phosphorylation; for pMLC on western blots at higher concentrations: parental MDA-MB-231, higher concentrations
Method: All results are shown as mean ± standard error of n = 3 independent replicates. […] After fixation and permeabilization, cells were stained with phalloidin to visualize filamentous actin structures and pMLC (S19) primary antibody as indicated.
Cell lysates were prepared as described previously. For pMLC western blots, cells were lysed in a 1% (w/v) SDS, 50 mM Tris pH 7.5 buffer and lysates were passed through QIAshredder columns (Qiagen, 79654). Alternatively, for pMLC western blots lysates were prepared in lysis buffer with 50 mM Tris (pH7.5), 0.5% (w/v) SDS, supplemented with Complete Protease and PhosSTOP inhibitors (Roche). Whole cell lysates were separated by SDS-PAGE, transferred to Protran nitrocellulose membranes (Whatman), probed with primary antibodies and appropriate IR dye-conjugated secondary antibodies. Blots were visualized using a Licor Odyssey according to manufacturer’s instructions. Antibodies used in this study were: MRCKα (611584) from BD Transduction Laboratories; MRCKβ (H00009578-A01) from Abnova; MRCKα/β (MANDM1 6G8) from Glenn Morris (Centre for Inherited Neuromuscular Disease, Oswestry UK); MRCL3/MRLC2/MYL9 (sc-28329) from Santa Cruz Biotechnology; pMLC2 Thr18/Ser19 (3674) from Cell Signaling Technology. ROCK1/2 (07–1458) from Millipore; TetR (Clone 9G9; 631132) from Clontech; α-Tubulin (TU-02; sc-8035) from Santa Cruz Biotechnology; ERK2 from Chris Marshall (Institute of Cancer Research, London UK). Secondary antibodies used were: goat anti-mouse IgG Dylight 800 from Thermo Scientific (35521), goat anti rabbit IgG AlexaFluor 680 from Invitrogen (A12076), goat anti-rabbit IgG IR Dye 800 CW (926–32211) and goat anti-mouse IgG IR Dye 680 (926–68020) were from LI-COR Biosciences.

[3] = tested on: MDA-MB-231 cells; assay: Matrigel invasion (scratch wound closure, Incucyte) of MDA-MB-231 cells; format: cell-based, human
Method: (A) MDA-MB-231 human breast cancer cells were plated in 96 well plates, then 24 hours later a ~800 μm scratch wound was created. […] All results are shown as mean ± standard error of n ≥ 4 independent replicates. […] Readings were compared to the Alamar Blue metabolism in DMSO treated cells that were used as the viability standard of 100% for each replicate experiment. All results are shown as mean ± standard error of 3 independent replicates.
MDA-MB-231 cells were plated at 30,000 cells per well in Image Lock 96 well plates (Essen BioScience) in 100 μL complete DMEM medium and after allowing cells to settle for 20 min were incubated overnight at 37°C in 5% CO2 in a humidified incubator. Matrigel (BD Biosciences) was thawed overnight at 4°C, diluted 1:1 with PBS and 100 μL pipetted over cells that had been scratched with the WoundMaker tool (Essen BioScience). Plates were incubated for 1 h, then appropriately diluted drugs added in 100 μL media to achieve final concentrations. Plates were scanned with an Incucyte Zoom (Essen BioSciences) according to manufacturer’s instructions at 3 hour intervals. Cell viability was determined with AlamarBlue (Invitrogen, DAL 1025), which was added to the medium and cells cultured for 6 hours. Absorbances at 570 nm and at 600 nm were measured to assess metabolic activity.

[4] = tested on: SCC12 cells; assay: Cell confluence by Incucyte image analysis, SCC12 cells; format: cell-based, human; conditions: 2 μM, 21 hours
Method: All results are shown as mean ± standard error of n = 3 independent replicates. […] Readings were compared to the Alamar Blue metabolism in DMSO treated cells that were used as the viability standard of 100% for each replicate experiment. […] (F) Number of invading cells was determined in 5 random fields for each condition for each separate replicate experiment. All results are shown as mean ± standard error of n ≥ 3 independent replicates.
MDA MB 231 or SCC12 cells were plated in a 96 well plate and cultured for 24 hours. […] Pictures were taken every 3 hours and confluence was measured using the IncuCyte analysis software. AlamarBlue (Invitrogen, DAL 1025) was added to the medium and the cells were cultured for an additional day. Absorbances at 570 nm and at 600 nm were measured to assess cell health.

Structure (SMILES) | inhibition at 10 µM [1] [%] | EC50 ([2]; Homo sapiens, 0.5 h) [nM] | pMLC on western blots at higher concentrations [2] | inhibition of MDA-MB-231 invasion ([3]; 10 μM) | EC50 ([3]; Homo sapiens, MDA-MB-231, 24 h, read-out: EC50, inhibition of Matrigel invasion (wound closure)) [nM] | inhibition at 1 µM ([3]; Homo sapiens, MDA-MB-231, 1 μM) [%] | cell confluence [4] | EC50 [2] [nM] | inhibition of wound closure ([3]; 10 μM) | inhibition of invasion ([3]; 30 μM, 24 h) [%]
O=C(Nc1cn[nH]c1-c1ccccn1)c1nn(C2CCNCC2)cc1Cl [BDP5290, 4-chloro-1-(4-piperidyl)-N-[5-(2-pyridyl)-1H-pyrazol-4-yl]pyrazole-3-carboxamide] | > 75 | 316 | reduced pMLC to undetectable levels | virtually complete inhibition | 440 | > 60 | did not significantly differ between treatments | – | – | –
C[C@@H](N)[C@H]1CC[C@H](C(=O)Nc2ccncc2)CC1 [Y27632, reference compound] | – | – | unable to completely inhibit pMLC | – | – | – | did not significantly differ between treatments | 407 | ~ 40% | ≤ 50
